molecular target: T1, human BTK (Homo sapiens, UniProt Q06187); assay: BTK inhibition assay: BTK-mediated phosphorylation of FAM-labeled substrate 5-FAM-EEPLYWSFPAKKK-NH2 (Caliper LC-3000); format: biochemical; details: pIC50 = -log(IC50), IC50 molar; residues 382 to 659 of human BTK; incubated at room temperature for 60 minutes; larger values represent higher potency
T1 construct: GST (Glutathione-S-Transferase) (cleaved yes); made in house; host or cells: Spodoptera frugiperda Sf9 cells (baculovirus, Bac-to-Bac)
T1 sequence (Q06187 382-659): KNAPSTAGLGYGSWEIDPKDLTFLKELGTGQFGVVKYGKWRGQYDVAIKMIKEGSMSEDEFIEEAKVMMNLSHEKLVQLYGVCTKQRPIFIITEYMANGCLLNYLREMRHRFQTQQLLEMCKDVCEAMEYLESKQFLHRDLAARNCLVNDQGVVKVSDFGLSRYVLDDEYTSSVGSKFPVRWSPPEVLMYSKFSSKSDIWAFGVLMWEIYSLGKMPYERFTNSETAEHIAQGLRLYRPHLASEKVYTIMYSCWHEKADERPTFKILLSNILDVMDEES

Row | Structure (SMILES) | IC50 [nM]
1 | CCn1cnc2cc(-c3c(C)ccc4c(N)c(C(N)=O)nnc34)ccc21 [Example 132, 4-amino-8-(1-ethyl-1H-benzo[d]imidazol-5-yl)-7-methylcinnoline-3-carboxamide] | 1260
2 | NC(=O)c1nnc2c(-c3ccc4nc(-c5ccsc5)[nH]c4c3)cccc2c1N [Example 73, 4-amino-8-(2-(thiophen-3-yl)-1H-benzo[d]imidazol-6-yl)cinnoline-3-carboxamide] | 158
3 | NC(=O)c1nnc2c(-c3ccc4nc(-c5cccc(Cl)c5)[nH]c4c3)cccc2c1N [Example 76, 4-amino-8-(2-(3-chlorophenyl)-1H-benzo[d]imidazol-6-yl)cinnoline-3-carboxamide] | 126
4 | NC(=O)c1nnc2c(-c3ccc4nc(C5CCCC5)[nH]c4c3)cccc2c1N [Example 72, 4-amino-8-(2-cyclopentyl-1H-benzo[d]imidazol-6-yl)cinnoline-3-carboxamide] | 1260
5 | NC(=O)c1nnc2c(-c3ccc4nc(NCC5C6CC7CC(C6)CC5C7)[nH]c4c3)cccc2c1N (stereo not shown) [Example 94, 8-(2-((adamantan-2-ylmethyl)amino)-1H-benzo[d]imidazol-6-yl)-4-aminocinnoline-3-carboxamide] | 63.1
6 | NC(=O)c1nnc2c(-c3ccc4nc(CC5CCCCC5)[nH]c4c3)cccc2c1N [Example 78, 4-amino-8-(2-(cyclohexylmethyl)-1H-benzo[d]imidazol-6-yl)cinnoline-3-carboxamide] | 79.4
7 | NC(=O)c1nnc2c(N3CCc4[nH]ncc4C3)cccc2c1N [Example 86, 4-amino-8-(6,7-dihydro-1H-pyrazolo[4,3-c]pyridin-5(4H)-yl)cinnoline-3-carboxamide] | 2000
8 | Cc1ccc2c(N)c(C(N)=O)nnc2c1-c1cnc2cc[nH]c2c1 [Example 21, 4-amino-7-methyl-8-(1H-pyrrolo[3,2-b]pyridin-6-yl)cinnoline-3-carboxamide] | 126
9 | Cc1ccc2c(N)c(C(N)=O)nnc2c1-c1ccc2cnccc2c1 [Example 58, 4-amino-8-(isoquinolin-6-yl)-7-methylcinnoline-3-carboxamide] | 50.1
10 | Cc1c(-c2cccc3c(N)c(C(N)=O)nnc23)ccc2[nH]ncc12 [Example 31, 4-amino-8-(4-methyl-1H-indazol-5-yl)cinnoline-3-carboxamide] | 39.8

Compounds with a lower IC50, results first:

Row | IC50 [nM] | Structure (SMILES)
11 | 31.6 | Cc1ccc2c(N)c(C(N)=O)nnc2c1-c1ccc2cn[nH]c2c1F [Example 104, 4-amino-8-(7-fluoro-1H-indazol-6-yl)-7-methylcinnoline-3-carboxamide]
12 | 7.94 | Cc1cc2cn[nH]c2cc1-c1cc(N2CCOCC2)cc2c(N)c(C(N)=O)nnc12 [Example 137, 4-amino-8-(5-methyl-1H-indazol-6-yl)-6-morpholinocinnoline-3-carboxamide]
13 | 5.01 | CCc1ccc2c(N)c(C(N)=O)nnc2c1-c1ccc2[nH]ncc2c1 [Example 62, 4-amino-7-ethyl-8-(1H-indazol-5-yl)cinnoline-3-carboxamide]
14 | 20 | Cc1ccc2c(N)c(C(N)=O)nnc2c1-c1ccc2[nH]nnc2c1 [Example 48, 4-amino-8-(1H-benzo[d][1,2,3]triazol-5-yl)-7-methylcinnoline-3-carboxamide]
15 | 12.6 | Cc1cc2cn[nH]c2cc1-c1cc(N2CCC(O)CC2)cc2c(N)c(C(N)=O)nnc12 [Example 138, 4-amino-6-(4-hydroxypiperidin-1-yl)-8-(5-methyl-1H-indazol-6-yl)cinnoline-3-carboxamide]
16 | 15.8 | NC(=O)c1nnc2c(-c3cc4[nH]ncc4cc3Cl)ccc(F)c2c1N [Example 107, 4-amino-8-(5-chloro-1H-indazol-6-yl)-5-fluorocinnoline-3-carboxamide]

Source: patent US9365566B2 (Takeda Pharmaceutical Company Limited, priority 2012, dated 2016)
